# Reference: US9403814B2, “Crystalline forms of dihydropyrimidine derivatives” (SUNSHINE LAKE PHARMA CO., LTD., priority 2012, dated 2016)
# Structures can show the parent of a compound that is named as a salt.
# Columns and labels:
# [1] = Solubility test: dissolution of crystalline form sample in water; assay type: physicochemical; conditions: 25±5° C.; for dissolubility of samples (300 mg/mL): about 600 mg sample in water (2 mL), ultrasonic vibration, visual check for solute particles; for solubility in water (conclusion from Table 1): 300 mg/mL
# Experimental: About 600 mg of a crystalline form sample was added to water (2 mL). The dissolution of the sample was obtained with ultrasonic vibration at 25±5° C. No visible solute particles mean that the sample has a complete dissolution in water; whereas visible solute particles mean that the sample precipitates in water.
# [2] = Stability test: impurity content by HPLC under storage conditions; assay type: physicochemical; conditions: for stability under the experimental conditions (conclusion from Tables 2 and 3): high temperature, accelerated, mediated, high humidity and illumination conditions, up to 30 days
# Experimental: A crystalline form sample was put in a watch glass in the form of a thin layer of ≦5 mm. The stability test was conducted under different conditions: high temperature (60±2° C.) for 30 days, accelerated condition (40±2° C., 75%±5% humidity) for 30 days, mediated condition (30±2° C., 65%±5% humidity) for 30 days, high humidity (25±2° C., 90%±5%) for 10 days and illumination condition (visible light 4500 lx±500 lx with ultraviolet light not lower than 0.7 W·h/m^2, 25±2° C., 60%±5% relative humidity) for 10 days respectively. The impurity contents of crystalline forms B and C were determined at various time points (0, 10, 20, and 30 days) by high performance liquid chromatography (HPLC) with peak area normalization.
# [3] = accelerated condition (40±2° C., 75%±5% humidity), 0 day
# [4] = accelerated condition (40±2° C., 75%±5% humidity), 10 days
# [5] = accelerated condition (40±2° C., 75%±5% humidity), 20 days
# [6] = accelerated condition (40±2° C., 75%±5% humidity), 30 days
# [7] = high humidity (25±2° C., 90%±5%), 0 day
# [8] = high humidity (25±2° C., 90%±5%), 10 days
# [9] = high temperature (60±2° C.), 0 day
# [10] = high temperature (60±2° C.), 10 days
# [11] = high temperature (60±2° C.), 20 days
# [12] = high temperature (60±2° C.), 30 days
# [13] = illumination condition (visible light 4500 lx±500 lx with UV, 25±2° C., 60%±5% relative humidity), 0 day
# [14] = illumination condition (visible light 4500 lx±500 lx with UV, 25±2° C., 60%±5% relative humidity), 10 days
# [15] = mediated condition (30±2° C., 65%±5% humidity), 0 day
# [16] = mediated condition (30±2° C., 65%±5% humidity), 10 days
# [17] = mediated condition (30±2° C., 65%±5% humidity), 20 days
# [18] = mediated condition (30±2° C., 65%±5% humidity), 30 days
solubility in water (conclusion from Table 1) [1],"impurity content by HPLC [2, 3] [%]","impurity content by HPLC [2, 4] [%]","impurity content by HPLC [2, 5] [%]","impurity content by HPLC [2, 6] [%]","impurity content by HPLC [2, 7] [%]","impurity content by HPLC [2, 8] [%]","impurity content by HPLC [2, 9] [%]","impurity content by HPLC [2, 10] [%]","impurity content by HPLC [2, 11] [%]","impurity content by HPLC [2, 12] [%]",stability under the experimental conditions (conclusion from Tables 2 and 3) [2],"impurity content by HPLC [2, 13] [%]","impurity content by HPLC [2, 14] [%]","impurity content by HPLC [2, 15] [%]","impurity content by HPLC [2, 16] [%]","impurity content by HPLC [2, 17] [%]","impurity content by HPLC [2, 18] [%]",SMILES,dissolubility of samples (300 mg/mL) [1]
good solubility in water,0.06,0.09,0.08,0.10,0.06,0.06,0.06,0.13,0.20,0.24,did not degrade or change,0.06,0.12,0.06,0.10,0.13,0.12,"CCOC(=O)C1=C(CN2CCOCC2)NC(c2nccs2)=NC1c1ccc(F)cc1Br (single isomer, unassigned) [form B, 6[R,S]-ethyl 6-(2-bromo-4-fluorophenyl)-4-(morpholinomethyl)-2-(thiazol-2-yl)-1,6-dihydro pyrimidine-5-carboxylate mesylate]","completely dissolved, some sample precipitated"
good solubility in water,0.03,0.04,0.04,0.04,0.03,0.04,0.03,0.06,0.03,0.03,did not degrade or change,0.03,0.03,0.03,0.03,0.03,0.03,"CCOC(=O)C1=C(CN2CCOCC2)NC(c2nccs2)=NC1c1ccc(F)cc1Br (single isomer, unassigned) [form C, 6[R,S]-ethyl 6-(2-bromo-4-fluorophenyl)-4-(morpholinomethyl)-2-(thiazol-2-yl)-1,6-dihydro pyrimidine-5-carboxylate mesylate]","completely dissolved, no sample precipitated"
